{"source": "patent US20200085047A1", "about": "“Use of an Acyclic Picolinamide Compound as a Fungicide for Control of Phytopathogenic Fungi in Vegetables” (Dow AgroSciences LLC, priority 2017, published 2020)", "assay_type_in_all_cases": "in vivo", "key": {"Sclerotinia sclerotiorum": {"tested_on": "Sclerotinia sclerotiorum", "experiment": "Field assessment of Sclerotinia sclerotiorum (SCLESC) on lettuce, 2 day protectant", "details": "5% EC + Trycol", "excerpt": "Field Assessment of Sclerotinia sclerotiorum (SCLESC) on Lettuce:\nA fungicidal treatment containing a 5% EC formulation of compound I plus an adjuvant (Trycol, 50% w/w at 0.2% v/v), was sprayed on head lettuce plants (LACSC) twice, the first application at the heading stage 36 days after planting, and the second application 7 days later. Formulations of compound I were applied at rates of 50, 100, and 150 grams of active ingredient per hectare (g ai/ha). The experimental plots were inoculated with sclerotinia rot pathogen 2 days after the first application. The treatment was part of an experimental trial designed as a randomized complete block with four replications and a plot of approximately 2×1 m, with formulations of compound I being applied at water volume of 800 L/ha.\nDisease infection percentage was calculated by the equation (stem lesion lengths)/(total stem lengths)×100% per plant (6 plants per plot randomly). Sclerotinia rot infection was assessed four times, 7 days after application A (DAAA) plus 7, 14 and 21 DAAB. Area under the disease progress curve (AUDPC) was calculated for each plot using the sets of recorded visual infection data. Relative AUDPC (% control based on AUDPC) was calculated as percent of the nontreated control."}, "Colletotrichum capsici [1]": {"tested_on": "Colletotrichum capsici", "experiment": "Field assessment of Colletotrichum capsici (COLLCA) on hot peppers, 2 day protectant", "details": "5% EC + Trycol, hot pepper", "description": "(§1) Field Assessment of Colletotrichum capsici (COLLCA) on Hot Peppers:\nAssessment of compound I of COLLCA on hot peppers, in both protectant and curative fashion, was performed in two separate field trials. For the 2 day protectant test, a fungicidal treatment containing a 5% EC formulation of compound I plus an adjuvant (Trycol, 50% w/w at 0.2% v/v), was sprayed on hot pepper plants (CPSAN) three times, the first application at the flowering and fruiting stage 43 days after planting, with the following applications in 7 day intervals. Formulations of compound I were applied at rates of 50, 100, and 150 grams of active ingredient per hectare (g ai/ha). The experimental plots were inoculated with the anthracnose pathogen 2 days after the first application. The treatment was part of an experimental trial designed as a randomized complete block with four replications and a plot of approximately 2×1 m, with formulations of compound I being applied at water volume of 1000 L/ha.\n(§2) Disease severity was assessed as the percent fruit area diseased per plant (6 plants per plot randomly). Anthracnose infection was assessed four times, 7 days after application A (DAAA), 7 DAAB, plus 7 and 14 DAAC. Area under the disease progress curve (AUDPC) was calculated for each plot using the sets of recorded visual infection data. Relative AUDPC (% control based on AUDPC) was calculated as percent of the nontreated control."}, "Colletotrichum capsici [2]": {"tested_on": "Colletotrichum capsici", "experiment": "Field assessment of Colletotrichum capsici (COLLCA) on hot peppers, 4 day curative", "details": "5% EC + Trycol, hot pepper", "excerpt": "as §1\nFor the 4 day curative trial, a fungicidal treatment containing a 5% EC formulation of compound I plus an adjuvant (Trycol, 50% w/w at 0.2% v/v), was sprayed on hot pepper plants (CPSAN) twice, the first application at the flowering and fruiting stage 59 days after planting, with the second application after 7 days. Formulations of compound I were applied at rates of 50, 100, 150 and 200 grams of active ingredient per hectare (g ai/ha). The experimental plots were inoculated with the anthracnose pathogen 4 days before the first application (curative). The treatment was part of an experimental trial designed as a randomized complete block with four replications and a plot of approximately 2×1 m, with formulations of compound I being applied at water volume of 1200 L/ha.\nas §2, with “(DAAA),” for “(DAAA), 7 DAAB,”, “plus 7, 14” for “plus 7”, “and 21 DAAB.” for “and 14 DAAC.”"}, "Erysiphe cichoracearum": {"tested_on": "Erysiphe cichoracearum", "experiment": "Field assessment of Erysiphe cichoracearum (ERYSCI) on cucumber, 2 day protectant", "details": "5% EC + Trycol", "description": "Field Assessment of Erysiphe Cichoracearum (ERYSCI) on Cucumber:\nAssessment of compound I of ERYSCI on cucumbers, in both protectant and curative fashion, was performed in two separate field trials. For the two day protectant test (2DP), a fungicidal treatment containing a 5% EC formulation of compound I plus an adjuvant (Trycol, 50% w/w at 0.2% v/v), was sprayed on cucumber plants (CUMSA) twice, the first application at the fruiting stage 41 days after planting, with the following application after 7 days. Formulations of compound I were applied at rates of 50, 100, and 150 grams of active ingredient per hectare (g ai/ha). The experimental plots were inoculated with the powdery mildew pathogen 2 days after the first application. The treatment was part of an experimental trial designed as a randomized complete block with four replications and a plot of approximately 2×1 m, with formulations of compound I being applied at water volume of 1200 L/ha based on seedling sizes.\nDisease severity was assessed as percent diseased area of cucumber foliage per plant (6 plants per plot randomly). Cucumber powdery mildew infection was assessed three times, 7 days after application A (DAAA), and 7 and 14 DAAB. Area under the disease progress curve (AUDPC) was calculated for each plot using the sets of recorded visual infection data. Relative AUDPC (% control based on AUDPC) was calculated as percent of the nontreated control."}, "Colletotrichum coccodes": {"tested_on": "Colletotrichum coccodes", "experiment": "Field assessment of Colletotrichum coccodes (COLLCA) in tomato", "details": "SC", "excerpt": "Field Assessment of Colletotrichum Coccodes (COLLCA) in Tomato:\nA fungicidal treatment containing Compound I, applied in an SC formulation (MSO built-in) and tank mixed with an adjuvant (Agnique BP-420, 50% w/w at 0.2% v/v or Adsee C80W 80%), was sprayed on tomato plants (LYPES, Roma VS Saladette type variety) at growth stage 12 in vegetative growth at rates of 50, 75, 100, and 150 grams of active ingredient per hectare (g ai/ha). The experimental plots were run with natural infestation of the anthracnose pathogen and supplemented with additional inoculum about one day after the 1st application. The treatment was part of an experimental trial designed as a randomized complete block (RCB) with four replications and a plot of approximately 6.67×30 ft. Compound I was applied at water volume of 40 gal/acre, using a backpack sprayer (carbon dioxide (CO2), 8004VS FF nozzles) and pressurized at 38 psi.\nPercent leaf severity was assessed three times during the trial (0-23 days after application 1). Area under the disease progress curve (AUDPC) was calculated for each plot using the recorded leaf severity data. Relative AUDPC (% control based on AUDPC) was calculated as percent of the untreated control."}}}
{"smiles": "COc1ccnc(C(=O)N[C@@H](C)C(=O)O[C@@H](C)C(c2ccc(F)cc2)c2ccc(F)cc2)c1OC(C)=O", "note": "[Compound I, (S)-1,1-bis(4-fluorophenyl)propan-2-yl (3-acetoxy-4-methoxypicolinoyl)-L-alaninate]", "values": [{"measurement": "Percent control based on AUDPC, SCLESC 2 DP", "setting": "Sclerotinia sclerotiorum; 50 g ai/ha", "result": "B (51-75)"}, {"measurement": "Percent control based on AUDPC, SCLESC 2 DP", "setting": "Sclerotinia sclerotiorum; 100 g ai/ha", "result": "A (76-100)"}, {"measurement": "Percent control based on AUDPC, SCLESC 2 DP", "setting": "Sclerotinia sclerotiorum; 150 g ai/ha", "result": "A (76-100)"}, {"measurement": "Percent control based on AUDPC, COLLCA 2 DP", "setting": "Colletotrichum capsici [1]; 50 g ai/ha", "result": "A (76-100)"}, {"measurement": "Percent control based on AUDPC, COLLCA 2 DP", "setting": "Colletotrichum capsici [1]; 100 g ai/ha", "result": "A (76-100)"}, {"measurement": "Percent control based on AUDPC, COLLCA 2 DP", "setting": "Colletotrichum capsici [1]; 150 g ai/ha", "result": "A (76-100)"}, {"measurement": "Percent control based on AUDPC, COLLCA 4 DC", "setting": "Colletotrichum capsici [2]; 50 g ai/ha", "result": "C (26-50)"}, {"measurement": "Percent control based on AUDPC, COLLCA 4 DC", "setting": "Colletotrichum capsici [2]; 100 g ai/ha", "result": "B (51-75)"}, {"measurement": "Percent control based on AUDPC, COLLCA 4 DC", "setting": "Colletotrichum capsici [2]; 150 g ai/ha", "result": "B (51-75)"}, {"measurement": "Percent control based on AUDPC, COLLCA 4 DC", "setting": "Colletotrichum capsici [2]; 200 g ai/ha", "result": "B (51-75)"}, {"measurement": "Percent control based on AUDPC, ERYSCI 2 DP", "setting": "Erysiphe cichoracearum; 50 g ai/ha", "result": "A (76-100)"}, {"measurement": "Percent control based on AUDPC, ERYSCI 2 DP", "setting": "Erysiphe cichoracearum; 100 g ai/ha", "result": "A (76-100)"}, {"measurement": "Percent control based on AUDPC, ERYSCI 2 DP", "setting": "Erysiphe cichoracearum; 150 g ai/ha", "result": "A (76-100)"}, {"measurement": "Percent Control of COLLCA (AUDPC)", "setting": "Colletotrichum coccodes; Compound I 50 g/ha, Agnique BP420, 200 mL/ha", "result": 67, "unit": "%"}, {"measurement": "Percent Control of COLLCA (AUDPC)", "setting": "Colletotrichum coccodes; Compound I 50 g/ha, MSO, 100 g/ha", "result": 46.0, "unit": "%"}, {"measurement": "Percent Control of COLLCA (AUDPC)", "setting": "Colletotrichum coccodes; Compound I 75 g/ha, Agnique BP420, 2300 mL/ha", "result": 91.1, "unit": "%"}, {"measurement": "Percent Control of COLLCA (AUDPC)", "setting": "Colletotrichum coccodes; Compound I 75 g/ha, MSO, 150 g/ha", "result": 75.5, "unit": "%"}, {"measurement": "Percent Control of COLLCA (AUDPC)", "setting": "Colletotrichum coccodes; Compound I 100 g/ha, Adsee C80W 80%, 250 g/ha", "result": 57.3, "unit": "%"}, {"measurement": "Percent Control of COLLCA (AUDPC)", "setting": "Colletotrichum coccodes; Compound I 100 g/ha, Agnique BP420, 400 mL/ha", "result": 91.0, "unit": "%"}, {"measurement": "Percent Control of COLLCA (AUDPC)", "setting": "Colletotrichum coccodes; Compound I 100 g/ha, MSO, 200 g/ha", "result": 92.6, "unit": "%"}, {"measurement": "Percent Control of COLLCA (AUDPC)", "setting": "Colletotrichum coccodes; Compound I 150 g/ha, Agnique BP420, 600 mL/ha", "result": 95.7, "unit": "%"}, {"measurement": "Percent Control of COLLCA (AUDPC)", "setting": "Colletotrichum coccodes; Compound I 150 g/ha, MSO, 300 g/ha", "result": 95.3, "unit": "%"}]}
